Literature values, collected in US20050215455A1, “Surfactants in powdered form that can be used in tablets or gelatin capsules; preparation process and compositions containing them” (priority 2004, published 2005).
Values after ≈ are worked out from the molar mass of the structure shown.

SMILES: Cn1c(=O)c2[nH]cnc2n(C)c1=O [Theophylline]
- Solubility in water: 8 µg/mL (≈ 44.4 µM)
